According to US8772235B2, “Compounds having peptides conjugated to bone targeting moieties and methods of making and using thereof” (The Governors of the University of Alberta, priority 2009, dated 2014):

Legend:
[1] = Effect on plasma phosphate level in normal rats (SMCC series); assay type: in vivo, rat; conditions: 20 IU sCT/kg equivalent, subcutaneous
Method: (§1) Pharmacodynamic response of sCT analogue was evaluated by analyzing plasma calcium concentration in the rat model. Sprague Dawley female rats weighing 230-260 g (about 6 weeks old) were purchased from Charles River, USA and housed at the University of Alberta Animal Holding Unit. All experimental protocols were approved by the Animals Ethics Committee of the University of Alberta. The rats were divided randomly into five groups of 3 animals each and the pharmacodynamic response was assessed following subcutaneous administration of the sCT or analogue equivalent to 20 IU sCT/kg body weight. Rats were anesthetized using Isoflurane inhalation anesthesia and the 200 μl blood samples were obtained in heparinized Eppendorf microtubes before drug injection. Then 100 μl of sCT or equivalent dose in 20 mM Sodium Acetate buffer pH 5 was sub cu injected and the blood samples were collected 1, 2, 3 and 4 hrs post injection from jugular vein. Blood plasma was obtained by centrifuging the samples at 5000 rpm for 10 min and collecting the supernatant. Plasma calcium level was assayed by QuantiChrom™ Calcium Assay Kit (BioAssay Systems, CA USA) and the plasma phosphate level was assayed by QuantiChrom™ Phosphate Assay Kit (BioAssay Systems, CA USA).

[2] = Circular dichroism, secondary structure of sCT, sCT-SMCC and sCT-BP; assay type: physicochemical; conditions: 20 mM acetate buffer pH 5.0, 400 μg/mL sCT or equivalent
Method: For a more detailed analysis of the influence of BP coupling on secondary structural confirmation of sCT, the circular dichroism (CD) spectrum of sCT, sCT-SMCC and sCT-BP was measured in the 20 mM acetate buffer pH 5.0. CD spectra were obtained with a ConvCD spectrophotometer instrument. Spectra were acquired over a wavelength range of 190 to 260 nm. The N2 flow rate was set at 5 l/min. The sample cuvette was cleaned with 20 mM Sodium Acetate buffer pH 5, and the spectra of test samples, which comprised of 400 μg/mL of sCT or equivalent the same buffer, were recorded with the corresponding buffer serving as blanks.

[3] = Effect on plasma calcium level in normal rats (SMCC series); assay type: in vivo, rat; conditions: 20 IU sCT/kg equivalent, subcutaneous
Method: as §1

[4] = first hour, vs acetate buffer controls

Row | Substance | percentage of plasma phosphate reduction ([1]; 4 hour post dosing) | percentage of plasma phosphate reduction [1, 4] | percentage of plasma phosphate reduction ([1]; second hour) | secondary structure by CD spectrum [2] | percentage of plasma calcium reduction ([3]; 4 hour post dosing) | percentage of plasma calcium reduction [3, 4] | percentage of plasma calcium reduction ([3]; second hour) | percentage of plasma calcium reduction ([3]; third hour)
1 | sCT-BP: sCT-SMCC coupled with Thiol-BP (thiol bisphosphonate); mixture of sCT-2SMCC-1BP to sCT-3SMCC-3BP | 8.54±5.11% | 7.65±4.73% | 12.47±5.09% | strong 6-helical character | 27.36±2.28% | 13.45±1.64% | 12.47±5.09% | 26.62±5.28%
2 | sCT-SMCC: sCT reacted with sulfo-SMCC: mono-, di- and tri-substituted thiol reactive sCT intermediates | 10.4±0.54% | 9.18±1.87% | 12.18±2.03% | increased peak intensity at 222 nm | 28.05±2.08% | 15.27±2.35% | 19.43±2.32% | 24.48±2.83%
